Reference: PMC9586926, “An efflux-susceptible antibiotic-adjuvant with systemic efficacy against mouse infections” (Scientific Reports, 2022)
Where a SMILES comes first, the peptide text is derived from it. [ ]: non-standard residue; d: D form. The star is where a group is joined. 12Ado = NCCCCCCCCCCCC(=O)O; Decanoyl = CCCCCCCCCC(=O)*; Dab = NCC[C@H](N)C(=O)O

Key:
A. baumannii = test: MIC, broth microdilution; type: cell-based, Acinetobacter baumannii; conditions: broth microdilution in LB, 18–24 h, 37 °C; n = 1 strain
Description: (§1) Bacteria used in this study consisted of standard American Type Culture Collection (ATCC; Biological Industries, Beit Haemek, Israel) strains, clinically isolated (CI; Sourasky Medical Center, Tel Aviv, Israel) strains, as well as isogenic mutant strains. Gram-negative bacteria included Acinetobacter baumannii ATCC 19606; Escherichia coli ATCC 25922, 35218, CFT073, CI 14384, 16327, and the isogenic pair Ag100 (wild-type) and its efflux deficient mutant Ag100a (ΔacrAB); Klebsiella pneumoniae CI 1287, 224; Pseudomonas aeruginosa ATCC 27853, CI 1278, 8634; Salmonella enterica serovar Typhimurium ATCC 14028 (wild-type) and its isogenic efflux deficient mutant ΔacrAB. Bacteria were grown in Luria–Bertani broth (LB; 5 g/l NaCl, 5 g/l yeast extract, 10 g/l tryptone; pH = 7.0) at 37 °C with shaking. Over-night cultures were diluted 10-folds into fresh growth-medium and incubated at 37 °C with shaking until reaching mid-logarithmic phase. Then, bacterial concentrations were adjusted using O.D.600 nm measurements, and bacteria were subjected to the experimental procedures listed herein.
MIC was determined according to the broth microdilution method: antimicrobials were subjected to serial twofold dilutions in LB medium, and incubated with 5 × 10^5 CFU/ml of bacteria (final volume of 200 µl) for 18–24 h at 37 °C. Then, O.D.620 nm was measured (BioTek Instruments Synergy HT; Winooski, VT, USA), and the MIC was defined as the lowest antimicrobial concentration for which no increase in O.D.620 nm was evident, compared to the untreated control.

UPEC CFT073 = test: Urinary-tract infection model; type: in vivo, mice
Protocol: (§2) The study is reported in accordance with ARRIVE guidelines.
(§3) Lipopeptides potential application in monotherapy and/or combination-therapies was explored with two infection models. In the peritonitis-sepsis model, mice (n = 10 per group) were first rendered neutropenic by two intraperitoneal (I.P.) injections of 0.3 ml containing 150 mg/kg and 100 mg/kg cyclophosphamide, administered 4 days and 1 day before the experiment, respectively. […] Mice survival was recorded for up to 7 days. In a variant assay, bacteria in PBS (1.4 × 10^6) were pre-treated with 10 µM lipopeptides for 15 min, similarly administered, and mice survival was recorded for up to 3 days. In the urinary-tract infection (UTI) model, mice (N = 5 mice per group) were anesthetized by a single I.P. injection (0.2 ml) containing a mixture of ketamine (100 mg/kg) and xylazine (5 mg/kg). Following application of an analgesic 2% lidocaine gel on their penises, mice were infected intra-urethraly using a 24-gauge catheter with 1.2 × 10^8 CFU/mouse (0.05 ml) and treated with the vehicle control (S.C., 1 h post-infection), 2 mg/kg rifampin (oral gavage, immediately before anesthesia), 7.5 mg/kg q.i.d. lipopeptides (S.C., starting 1 h post-infection), or both. Mice were sacrificed 24 h post-infection, their bladder and kidneys aseptically excised, suspended in 5 ml of sterile PBS, homogenized for 3 min using a bench-top homogenizer, serially tenfold diluted in saline, plated on LB agar, and incubated over-night at 37 °C for enumeration.

E. coli 25922 [1] = test: Cytoplasmic membrane depolarization, DiSC3(5) fluorescence; type: cell-based, Escherichia coli; conditions: C10BBc12B up to 10 µM; PMB 2.5 µM
Protocol: Lipopeptides aptitude to depolarize the CM was evaluated using fluorescent measurements of the transmembrane potential sensitive dye 3,3′-Dipropylthiadicarbocyanine iodide (DiSC3(5))[69]. Bacteria (O.D.600 nm = 0.1) were washed by centrifugation at 10,000 RCF for 5 min, supernatant aspiration, and pellet resuspension in 5 mM HEPES containing 20 mM glucose, 50 mM KCl and 0.2 mM EDTA (pH = 7.2). This suspension was mixed with DiSC3(5) (400 µM in DMSO) to reach a final DiSC3(5) concentration of 4 µM and was incubated in the dark for 1 h at 37 °C with shaking. Then, 180 µl of this mixture were dispensed into black microtiter plates and fluorescence was recorded (excitation: 622 nm; emission: 670 nm) at 37 °C with shaking until baseline stabilization (BioTek Instruments Synergy HT; Winooski, VT, USA). Finally, 20 µl of HEPES containing serial twofold dilutions of lipopeptides were added and fluorescence was recorded for up to 30 min at the same conditions.

E. coli Ag100a (ΔacrAB) = test: MIC, broth microdilution, efflux deficient mutant; type: cell-based, Escherichia coli; conditions: E. coli Ag100a (ΔacrAB) versus Ag100
Description: as §1
MIC was determined according to the broth microdilution method: antimicrobials were subjected to serial twofold dilutions in LB medium, and incubated with 5 × 10^5 CFU/ml of bacteria (final volume of 200 µl) for 18–24 h at 37 °C. […]

E. coli 25922 [2] = test: Peritonitis-sepsis infection model in neutropenic mice; type: in vivo; conditions: n = 10
Protocol: as §2, §3

[3] = Binding to lipopolysaccharide, displacement of mono-dansylated polymyxin B; parameters: species or system E. coli; conditions: 2 µM DPMB, 3 µg/ml LPS, 1.5 h, compared with PMB; two independent experiments
Protocol: Affinity to lipopolysaccharide (LPS) was assessed using fluorescent measurements of displaced mono-dansylated polymyxin B (DPMB)[68]. 180 µl of 5 mM HEPES containing 2 µM DPMB and 3 µg/ml LPS (from E. coli) were dispensed into black microtiter plates and mixed with 20 µl of HEPES containing serial twofold dilutions of lipopeptides. Plates were incubated in the dark for 1.5 h at room-temperature and fluorescence (excitation: 340 nm; emission: 485 nm) was recorded immediately thereafter (BioTek Instruments Synergy HT; Winooski, VT, USA).

CCCCCCCCCC(=O)N[C@@H](CCN)C(=O)N[C@@H](CCN)C(=O)NCCCCCCCCCCCC(=O)N[C@@H](CCN)C(N)=O [C10BBc12B, decanoyl-bis.diaminobutyrate-aminododecanoyl-diaminobutyrate-amide] (Decanoyl-[Dab][Dab][12Ado][Dab]-NH2)
MIC A. baumannii (n=1) (A. baumannii): > 50 µM | bladder bacterial load (UPEC CFT073; 24 h post-infection, 2 mg/kg rifampin, 7.5 mg/kg q.i.d. C10BBc12B or both, n = 5): no reduction in bacterial load | efficacy of single dose regimen (UPEC CFT073; single dose 7.5 or […] 1 h post infection, alone or in combination with rifampin): essentially ineffective | CM depolarization (trans-membrane potential) (E. coli 25922 [1]): unable to affect the trans-membrane potential | MIC change against efflux deficient mutant versus wild-type (E. coli Ag100a (ΔacrAB)): eightfold reduction in MIC value | survival rate, monotherapy (E. coli 25922 [2]; 1.7 × 10^6 CFU/mouse, […] C10BBc12B S.C. 1 h post-infection or 20 mg/kg rifampin oral gavage): 40% | efficacy, monotherapy, higher inoculum (E. coli 25922 [2]; 1.9 × 10^6 CFU/mouse, […] C10BBc12B S.C. or 20 mg/kg rifampin oral): virtually no efficacy | mice mortality after infection with bacteria pre-treated with lipopeptide (E. coli 25922 [2]; modified model, 1.4 × 10^6 CFU/mouse pre-treated 15 min with 10 µM in PBS, I.P., three days): delayed the onset of mice mortality and reduced the overall lethality rate | displacement of LPS-bound DPMB [3]: inferior ability
